Test system: 186277-243-T-J2-PDC complex spheroid viability
Test: Anticancer human tumor 186277-243-T-J2-PDC patient-derived colon adenocarcinoma cell line growth inhibition [GQUAD]
Conditions: for IC50: curve of first compound; for viability, T/C: stronger effect = lower value
Summary of the method: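 Tumor cells were grown as complex spheroids with HUVEC endothelial cells and mesenchymal stem cells as stroma. G-quadruplex stabilizers were combined with targeted agents over half-log dilutions from near the clinical Cmax, or from 10 microM.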

[1] = second compound 0.0316 µM, first compound 0.0316 µM
[2] = second compound 0.0316 µM, first compound 0.316 µM
[3] = second compound 0.1 µM, first compound 0.0316 µM
[4] = second compound 0.1 µM, first compound 0.316 µM
[5] = second compound 0.316 µM, first compound 0.0316 µM
[6] = second compound 0.316 µM, first compound 0.316 µM
[7] = second compound 1 µM, first compound 0.0316 µM
[8] = second compound 1 µM, first compound 0.316 µM
[9] = second compound 3.16 µM, first compound 0.0316 µM
[10] = second compound 3.16 µM, first compound 0.316 µM
[11] = second compound 10 µM, first compound 0.0316 µM
[12] = second compound 10 µM, first compound 0.316 µM
[13] = second compound 0.0316 µM, first compound 0.000999 µM
[14] = second compound 0.0316 µM, first compound 0.00316 µM
[15] = second compound 0.0316 µM, first compound 0.00999 µM
[16] = second compound 0.0316 µM, first compound 0.0999 µM
[17] = second compound 0.1 µM, first compound 0.000999 µM
[18] = second compound 0.1 µM, first compound 0.00316 µM
[19] = second compound 0.1 µM, first compound 0.00999 µM
[20] = second compound 0.1 µM, first compound 0.0999 µM
[21] = second compound 0.316 µM, first compound 0.000999 µM
[22] = second compound 0.316 µM, first compound 0.00316 µM
[23] = second compound 0.316 µM, first compound 0.00999 µM
[24] = second compound 0.316 µM, first compound 0.0999 µM
[25] = second compound 1 µM, first compound 0.000999 µM
[26] = second compound 1 µM, first compound 0.00316 µM
[27] = second compound 1 µM, first compound 0.00999 µM
[28] = second compound 1 µM, first compound 0.0999 µM
[29] = second compound 3.16 µM, first compound 0.000999 µM
[30] = second compound 3.16 µM, first compound 0.00316 µM
[31] = second compound 3.16 µM, first compound 0.00999 µM
[32] = second compound 3.16 µM, first compound 0.0999 µM
[33] = second compound 10 µM, first compound 0.000999 µM
[34] = second compound 10 µM, first compound 0.00316 µM
[35] = second compound 10 µM, first compound 0.00999 µM
[36] = second compound 10 µM, first compound 0.0999 µM
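Note: spheroids exposed to drugs for 7 days.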
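Throughout, for viability, T/C: 100% = DMSO vehicle control viability.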

## C=CC(=O)N1CCN(c2nc(=O)n(-c3c(C)ccnc3C(C)C)c3nc(-c4c(O)cccc4F)c(F)cc23)C(C)C1 (stereo not drawn) + Cc1cnc(CNC(=O)c2c(=O)c3ccc(N4CCCN(C)CC4)nc3n3c2sc2ccccc23)cn1
Second compound 0.0316 µM
  IC50: > 10000 nM
Second compound 0.1 µM
  IC50: > 10000 nM
Second compound 0.316 µM
  IC50: > 10000 nM
Second compound 1 µM
  IC50: > 10000 nM
Second compound 3.16 µM
  IC50: < 31.6 nM
Second compound 10 µM
  IC50: > 10000 nM
[1]
  viability, T/C: 89.2%
Second compound 0.0316 µM, first compound 0.1 µM
  viability, T/C: 106%
[2]
  viability, T/C: 105%
Second compound 0.0316 µM, first compound 1 µM
  viability, T/C: 94.1%
Second compound 0.0316 µM, first compound 3.16 µM
  viability, T/C: 109%
Second compound 0.0316 µM, first compound 10 µM
  viability, T/C: 88.6%
[3]
  viability, T/C: 84.6%
Second compound 0.1 µM, first compound 0.1 µM
  viability, T/C: 91.3%
[4]
  viability, T/C: 99%
Second compound 0.1 µM, first compound 1 µM
  viability, T/C: 83.7%
Second compound 0.1 µM, first compound 3.16 µM
  viability, T/C: 96.1%
Second compound 0.1 µM, first compound 10 µM
  viability, T/C: 76.1%
[5]
  viability, T/C: 81.5%
Second compound 0.316 µM, first compound 0.1 µM
  viability, T/C: 58.7%
[6]
  viability, T/C: 75.7%
Second compound 0.316 µM, first compound 1 µM
  viability, T/C: 75.3%
Second compound 0.316 µM, first compound 3.16 µM
  viability, T/C: 75.8%
Second compound 0.316 µM, first compound 10 µM
  viability, T/C: 66.4%
[7]
  viability, T/C: 59.9%
Second compound 1 µM, first compound 0.1 µM
  viability, T/C: 62%
[8]
  viability, T/C: 65.6%
Second compound 1 µM, first compound 1 µM
  viability, T/C: 66.7%
Second compound 1 µM, first compound 3.16 µM
  viability, T/C: 68.4%
Second compound 1 µM, first compound 10 µM
  viability, T/C: 66.1%
[9]
  viability, T/C: 50.3%
Second compound 3.16 µM, first compound 0.1 µM
  viability, T/C: 47.4%
[10]
  viability, T/C: 52.4%
Second compound 3.16 µM, first compound 1 µM
  viability, T/C: 53.7%
Second compound 3.16 µM, first compound 3.16 µM
  viability, T/C: 62.8%
Second compound 3.16 µM, first compound 10 µM
  viability, T/C: 46%
[11]
  viability, T/C: 53.2%
Second compound 10 µM, first compound 0.1 µM
  viability, T/C: 46.5%
[12]
  viability, T/C: 49.3%
Second compound 10 µM, first compound 1 µM
  viability, T/C: 56.2%
Second compound 10 µM, first compound 3.16 µM
  viability, T/C: 61.3%
Second compound 10 µM, first compound 10 µM
  viability, T/C: 47.6%

## CC[C@@]1(O)C(=O)OCc2c1cc1n(c2=O)Cc2cc3c(CN(C)C)c(O)ccc3nc2-1 + Cc1cnc(CNC(=O)c2c(=O)c3ccc(N4CCCN(C)CC4)nc3n3c2sc2ccccc23)cn1
Second compound 0.0316 µM
  IC50: > 316 nM
Second compound 0.1 µM
  IC50: 263 nM
Second compound 0.316 µM
  IC50: 176 nM
Second compound 1 µM
  IC50: < 0.999 nM
Second compound 3.16 µM
  IC50: < 0.999 nM
Second compound 10 µM
  IC50: < 0.999 nM
[13]
  viability, T/C: 95.2%
[14]
  viability, T/C: 85.6%
[15]
  viability, T/C: 82.4%
[1]
  viability, T/C: 77.1%
[16]
  viability, T/C: 64.4%
[2]
  viability, T/C: 52.8%
[17]
  viability, T/C: 79.6%
[18]
  viability, T/C: 74.4%
[19]
  viability, T/C: 87.5%
[3]
  viability, T/C: 60.9%
[20]
  viability, T/C: 66.6%
[4]
  viability, T/C: 47.1%
[21]
  viability, T/C: 68.1%
[22]
  viability, T/C: 56.5%
[23]
  viability, T/C: 71.3%
[5]
  viability, T/C: 70.7%
[24]
  viability, T/C: 62%
[6]
  viability, T/C: 36.6%
[25]
  viability, T/C: 47.9%
[26]
  viability, T/C: 38.1%
[27]
  viability, T/C: 49.7%
[7]
  viability, T/C: 50.1%
[28]
  viability, T/C: 52.2%
[8]
  viability, T/C: 38.2%
[29]
  viability, T/C: 49.6%
[30]
  viability, T/C: 44.2%
[31]
  viability, T/C: 46.7%
[9]
  viability, T/C: 40.7%
[32]
  viability, T/C: 46.2%
[10]
  viability, T/C: 27.7%
[33]
  viability, T/C: 39.6%
[34]
  viability, T/C: 37.4%
[35]
  viability, T/C: 47.1%
[11]
  viability, T/C: 41.8%
[36]
  viability, T/C: 41.6%
[12]
  viability, T/C: 36.4%

## CCc1c2c(nc3ccc(O)cc13)-c1cc3c(c(=O)n1C2)COC(=O)[C@]3(O)CC + Cc1cnc(CNC(=O)c2c(=O)c3ccc(N4CCCN(C)CC4)nc3n3c2sc2ccccc23)cn1
Second compound 0.0316 µM
  IC50: 5.88 nM
Second compound 0.1 µM
  IC50: 7.11 nM
Second compound 0.316 µM
  IC50: 3.96 nM
Second compound 1 µM
  IC50: < 0.999 nM
Second compound 3.16 µM
  IC50: < 0.999 nM
Second compound 10 µM
  IC50: < 0.999 nM
[13]
  viability, T/C: 90.8%
[14]
  viability, T/C: 56%
[15]
  viability, T/C: 46.3%
[1]
  viability, T/C: 27.8%
[16]
  viability, T/C: 23.3%
[2]
  viability, T/C: 17.6%
[17]
  viability, T/C: 79.3%
[18]
  viability, T/C: 56.8%
[19]
  viability, T/C: 53.2%
[3]
  viability, T/C: 24.5%
[20]
  viability, T/C: 23.4%
[4]
  viability, T/C: 13.9%
[21]
  viability, T/C: 60.5%
[22]
  viability, T/C: 53.7%
[23]
  viability, T/C: 40.9%
[5]
  viability, T/C: 31.9%
[24]
  viability, T/C: 30.1%
[6]
  viability, T/C: 16.9%
[25]
  viability, T/C: 44.8%
[26]
  viability, T/C: 37.6%
[27]
  viability, T/C: 38.3%
[7]
  viability, T/C: 31.8%
[28]
  viability, T/C: 29.5%
[8]
  viability, T/C: 4.66%
[29]
  viability, T/C: 33.5%
[30]
  viability, T/C: 39.9%
[31]
  viability, T/C: 36.5%
[9]
  viability, T/C: 27.9%
[32]
  viability, T/C: 25.4%
[10]
  viability, T/C: 1.29%
[33]
  viability, T/C: 40.2%
[34]
  viability, T/C: 32.5%
[35]
  viability, T/C: 31.1%
[11]
  viability, T/C: 24.7%
[36]
  viability, T/C: 23.3%
[12]
  viability, T/C: 0.64%

## Cn1ncnc1[C@H]1c2n[nH]c(=O)c3cc(F)cc(c23)N[C@@H]1c1ccc(F)cc1 + Cc1cnc(CNC(=O)c2c(=O)c3ccc(N4CCCN(C)CC4)nc3n3c2sc2ccccc23)cn1
Second compound 0.0316 µM
  IC50: > 316 nM
Second compound 0.1 µM
  IC50: > 316 nM
Second compound 0.316 µM
  IC50: > 316 nM
Second compound 1 µM
  IC50: > 316 nM
Second compound 3.16 µM
  IC50: > 316 nM
Second compound 10 µM
  IC50: < 0.999 nM
[13]
  viability, T/C: 107%
[14]
  viability, T/C: 101%
[15]
  viability, T/C: 108%
[1]
  viability, T/C: 78.6%
[16]
  viability, T/C: 85.2%
[2]
  viability, T/C: 78.2%
[17]
  viability, T/C: 102%
[18]
  viability, T/C: 103%
[19]
  viability, T/C: 84.3%
[3]
  viability, T/C: 94.8%
[20]
  viability, T/C: 85.5%
[4]
  viability, T/C: 71.6%
[21]
  viability, T/C: 75.7%
[22]
  viability, T/C: 79.2%
[23]
  viability, T/C: 80.1%
[5]
  viability, T/C: 77%
[24]
  viability, T/C: 73.1%
[6]
  viability, T/C: 70.3%
[25]
  viability, T/C: 65.6%
[26]
  viability, T/C: 57.3%
[27]
  viability, T/C: 59.2%
[7]
  viability, T/C: 59.4%
[28]
  viability, T/C: 62.5%
[8]
  viability, T/C: 52.8%
[29]
  viability, T/C: 48.1%
[30]
  viability, T/C: 55.6%
[31]
  viability, T/C: 52.5%
[9]
  viability, T/C: 51.4%
[32]
  viability, T/C: 54%
[10]
  viability, T/C: 48.7%
[33]
  viability, T/C: 46%
[34]
  viability, T/C: 42.1%
[35]
  viability, T/C: 43.4%
[11]
  viability, T/C: 46.9%
[36]
  viability, T/C: 55.7%
[12]
  viability, T/C: 42.5%

— PubChem BioAssay AID2060512 (Molecular Pharmacology Branch, DTP, NCI, 2025)
